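Values below derive from 48-hour exposures of cells grown in 96-well plates, with endpoints linearly interpolated between the two concentrations bracketing the appropriate inhibition level. GI50 = concentration required for 50% inhibition of growth. TGI is the concentration that stops growth completely.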
Assays:
Experiment in all cases: growth of human tumour cells (NCI), 48 h
A549 NSCLC = tested on: A549 NSCLC
UO-31 renal = tested on: UO-31 renal
BT-549 breast = tested on: BT-549 breast
SW-620 colon = tested on: SW-620 colon
SF-539 CNS = tested on: SF-539 CNS
786-0 renal = tested on: 786-0 renal
SK-MEL-5 melanoma = tested on: SK-MEL-5 melanoma
IGROV1 ovarian = tested on: IGROV1 ovarian
ACHN renal = tested on: ACHN renal
HOP-92 NSCLC = tested on: HOP-92 NSCLC
MDA-N = tested on: MDA-N

| Structure (SMILES) | TGI (A549 NSCLC) | TGI (UO-31 renal) | TGI (BT-549 breast) | TGI (SW-620 colon) | TGI (SF-539 CNS) | TGI (786-0 renal) | TGI (SK-MEL-5 melanoma) | TGI (IGROV1 ovarian) | TGI (ACHN renal) | TGI (HOP-92 NSCLC) | TGI (MDA-N) | GI50 (A549 NSCLC) | GI50 (UO-31 renal) | GI50 (BT-549 breast) | GI50 (HOP-92 NSCLC) | GI50 (SW-620 colon) | GI50 (SF-539 CNS) | GI50 (SK-MEL-5 melanoma) | GI50 (ACHN renal) |
| --- | --- | --- | --- | --- | --- | --- | --- | --- | --- | --- | --- | --- | --- | --- | --- | --- | --- | --- | --- |
| O=C(O)Cc1ccc(Oc2nc3ccccc3nc2-c2ccccc2)cc1 | > 100 µM | > 100 µM | > 100 µM | > 100 µM | > 100 µM | > 100 µM | > 100 µM | > 100 µM | > 100 µM |  |  |  |  |  |  |  |  |  |  |
| CC(=O)OC1CC[C@@]2(C)C(=CC[C@@H]3[C@@H]2CC[C@]2(C)C(OC(C)=O)[C@H](n4ccnc4)C[C@@H]32)C1 (some centres undefined) | > 100 µM | > 100 µM |  | > 100 µM | 29.8 µM | > 100 µM | 30.3 µM | > 100 µM | > 100 µM | > 100 µM | 46.6 µM |  |  |  |  |  |  |  |  |
| C=CCCCCCCCCC(=O)ON(Cc1ccc(O)c(OC)c1)C(=O)C(F)(F)F | > 100 µM | 68 µM |  | > 100 µM | > 100 µM | > 100 µM | > 100 µM | > 100 µM | > 100 µM | > 100 µM |  |  |  |  |  |  |  |  |  |
| N/C(=N\N=C/c1cc([N+](=O)[O-])cc([N+](=O)[O-])c1O)NO | > 100 µM | > 100 µM |  | > 100 µM | > 100 µM |  | > 38.4 µM | > 100 µM |  | > 100 µM |  |  |  |  |  |  |  |  |  |
| COc1cccc(/C=N/[N-]C(N)=O)c1[O-].[OH3+].[Pd+2] | > 100 µM | > 100 µM |  | > 100 µM | > 100 µM | > 100 µM | > 100 µM | > 100 µM | > 100 µM | > 100 µM |  |  |  |  |  |  |  |  |  |
| CCN(CC)C(=S)S |  | > 100 µM |  | > 100 µM | > 100 µM | > 100 µM | > 43.6 µM | > 100 µM | > 100 µM | > 100 µM |  |  |  |  |  |  |  |  |  |
| NC(N)=N/N=C\c1c(-c2ccccc2)nc2sccn12 | 31.8 µM | 31.6 µM |  | 28.1 µM | 30.2 µM | 27.1 µM | 29.2 µM | 27 µM | 30.6 µM | 27.4 µM | 27.1 µM |  |  |  |  |  |  |  |  |
| CCN(CCCl)c1cc(CN(C)C)cc(NC(=O)c2cc(C(=O)Nc3cc(CN(C)C)cc(N(CC)CCCl)c3)n(C)n2)c1 | 1.8 µM | 7.42 µM |  | 0.304 µM | 1.63 µM | 0.261 µM | 2.28 µM | 0.38 µM | 0.749 µM | 3.38 µM | 2.55 µM |  |  |  |  |  |  |  |  |
| O=C(/C=C/c1ccc(Cl)cc1)c1ccc(Cl)s1 | > 100 µM | > 100 µM | 80.7 µM | 55 µM | > 100 µM | 90.9 µM |  | > 100 µM | > 100 µM | > 100 µM | 90.2 µM |  |  |  |  |  |  |  |  |
| CC(=O)c1sc2c(c1O)c(=O)n(-c1ccccc1)c(=S)n2-c1ccccc1 | > 100 µM | > 100 µM | > 100 µM | > 100 µM |  | > 100 µM | > 100 µM | > 100 µM |  | > 100 µM | > 100 µM |  |  |  |  |  |  |  |  |
| CO[C@]12C[C@@H](CNC(=O)c3cc(Br)c[nH]3)O[C@H]1NC(=O)N2 | > 100 µM | > 100 µM | > 100 µM | > 100 µM | > 100 µM | > 100 µM | > 100 µM | > 100 µM | > 100 µM | > 100 µM |  |  |  |  |  |  |  |  |  |
| CCOC(=O)C1=C(C)N(CC(C)C)C2(O)C(OC)CC(=O)C3C(=O)N(c4ccccc4)C(=O)C132 (centres undefined) | > 100 µM | 39.2 µM | > 100 µM | 77.9 µM | > 100 µM | > 100 µM | 43.9 µM | 40.2 µM | 72 µM | > 100 µM |  |  |  |  |  |  |  |  |  |
| COc1ccc(/C=N/n2c(Cc3ccccc3)n[nH]c2=O)cc1 | > 100 µM | > 100 µM | > 100 µM | > 100 µM | > 100 µM | > 100 µM |  |  | > 100 µM |  | > 100 µM |  |  |  |  |  |  |  |  |
| Nc1ncnc2c1N=C(c1ccccc1)CC(c1ccccc1)N2 (centres undefined) | > 100 µM | > 100 µM | > 100 µM | > 100 µM | > 100 µM | > 100 µM |  |  | > 100 µM | > 100 µM | > 100 µM |  |  |  |  |  |  |  |  |
| CC(N)=O.[Cl][Pt][Cl].[NH-]c1ccn(C2OC(CO)C(O)C2O)c(=O)n1 (centres undefined) | > 100 µM | > 100 µM | > 100 µM | > 100 µM | > 100 µM | > 100 µM | > 100 µM | > 100 µM | > 100 µM | > 100 µM |  |  |  |  |  |  |  |  |  |
| Clc1cccc2[nH]ncc12 | > 100 µM |  | > 100 µM | > 100 µM | > 100 µM | > 100 µM | > 100 µM | > 100 µM | > 100 µM | > 100 µM | > 100 µM |  |  |  |  |  |  |  |  |
| CC1=CC(=O)c2c(O)c3c(c(O)c2C1=O)C1C(O)C(C3=O)C23C(=O)c4c(O)c(C)cc(O)c4C(O)=C2C(=O)CC(O)C13 (centres undefined) | 10.8 µM |  | 17.9 µM | 12.2 µM | 5.07 µM | 5.69 µM | 4 µM | 6.58 µM | 7.44 µM |  | 2.89 µM |  |  |  |  |  |  |  |  |
| O=S(=O)(c1ccc2ccccc2c1)N1CCN(S(=O)(=O)c2ccc3ccccc3c2)CC1 | > 100 µM | > 100 µM | > 100 µM | > 100 µM |  | > 100 µM | > 100 µM | > 100 µM | > 100 µM | > 100 µM | > 100 µM |  |  |  |  |  |  |  |  |
| N=C(N)c1ccc(N=Nc2c(O)ccc3cc(O)ccc23)cc1 | > 100 µM | > 100 µM | > 100 µM | > 100 µM | > 100 µM | > 100 µM | > 100 µM | > 100 µM | > 100 µM | > 100 µM |  |  |  |  |  |  |  |  |  |
| CCN1C(=O)N2C(OC)c3ccccc3C(Br)C2(OC)C1=O (centres undefined) |  | > 100 µM |  | > 100 µM |  |  | > 100 µM | > 100 µM |  |  |  |  |  |  |  |  |  |  |  |
| CCN(CC)C(=S)SSCCO | > 100 µM | 32.3 µM | 31.9 µM | 26.5 µM | 29.1 µM |  | 53.1 µM |  | 35.8 µM | 27.7 µM |  | 79.9 µM | 15.8 µM | 16 µM | 14.6 µM | 13.6 µM | 15.7 µM | 16.5 µM | 18.7 µM |
| CCOP(=O)(/C=C\n1ccc(=O)[nH]c1=O)OCC | > 100 µM |  | > 100 µM | > 100 µM | > 100 µM | > 100 µM | > 100 µM | > 100 µM | > 100 µM |  | > 100 µM |  |  |  |  |  |  |  |  |
| Nc1ncnc2c1ncn2CCOC(c1ccccc1)P(=O)(O)O (centres undefined) | > 100 µM | > 100 µM |  | > 100 µM | > 100 µM | > 100 µM | > 100 µM | > 100 µM | > 100 µM |  |  |  |  |  |  |  |  |  |  |

Source: PubChem BioAssay (NCI)
